Measurements published in patent publication US8802597B2, “Herbicidal pyrimidines” (E I du Pont de Nemours and Company, priority 2003, dated 2014).
Where two headings read alike, the source gives them in different places.

Experiments:
Assay in all cases: Test C pre/postemergence
Type in all cases: in vivo
[1] = system: Surinam grass (Brachiaria decumbens); conditions: Urochloa decumbens; for pest or weed control at 125 g/ha: 125 g ai/ha; for pest or weed control at 500 g/ha: 500 g ai/ha; for pest or weed control at 62 g/ha: 62 g ai/ha; for pest or weed control at 250 g/ha: 250 g ai/ha
Outline: (§1)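 Rating scale 0–100: 0 means no effect, 100 complete control; taken visually 12 to 14 days post-treatment versus controls. Pre- and postemergence greenhouse applications, postemergence at 1- to 4-leaf stage, non-phytotoxic solvent with surfactant as carrier.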

[2] = system: goosegrass (Eleusine indica); conditions: Eleusine indica; for pest or weed control at 62 g/ha: 62 g ai/ha; for pest or weed control at 125 g/ha: 125 g ai/ha; for pest or weed control at 250 g/ha: 250 g ai/ha; for pest or weed control at 500 g/ha: 500 g ai/ha
Outline: as §1

[3] = system: pigweed (Amaranthus retroflexus); conditions: Amaranthus retroflexus; for pest or weed control at 62 g/ha: 62 g ai/ha; for pest or weed control at 125 g/ha: 125 g ai/ha; for pest or weed control at 250 g/ha: 250 g ai/ha; for pest or weed control at 500 g/ha: 500 g ai/ha
Outline: as §1

soybean (Glycine max) = conditions: Glycine max; for plant injury at 62 g/ha: 62 g ai/ha; for plant injury at 125 g/ha: 125 g ai/ha; for plant injury at 250 g/ha: 250 g ai/ha; for plant injury at 500 g/ha: 500 g ai/ha
Outline: as §1

[4] = system: woolly cupgrass (Eriochloa villosa); conditions: Eriochloa villosa; for pest or weed control at 62 g/ha: 62 g ai/ha; for pest or weed control at 125 g/ha: 125 g ai/ha; for pest or weed control at 250 g/ha: 250 g ai/ha; for pest or weed control at 500 g/ha: 500 g ai/ha
Outline: as §1

kochia (Kochia scoparia) = conditions: Bassia scoparia; for pest or weed control at 62 g/ha: 62 g ai/ha; for pest or weed control at 125 g/ha: 125 g ai/ha
Outline: as §1

[5] = post-emergence, Postemergence, scale 0 to 100 (0 no effect, 100 complete control), read-out: Surinam Grass plant response rating
[6] = post-emergence, Postemergence, scale 0 to 100, read-out: Plant response rating, Surinam Grass
[7] = pre-emergence, Preemergence, scale 0 to 100, read-out: Plant response rating, Surinam Grass
[8] = post-emergence, Postemergence, scale 0 to 100 (0 no effect, 100 complete control), read-out: Goosegrass plant response rating
[9] = post-emergence, Postemergence, scale 0 to 100, read-out: Plant response rating, Goosegrass
[10] = pre-emergence, Preemergence, scale 0 to 100, read-out: Plant response rating, Goosegrass
[11] = post-emergence, Postemergence, scale 0 to 100 (0 no effect, 100 complete control), read-out: Pigweed plant response rating
[12] = post-emergence, Postemergence, scale 0 to 100, read-out: Plant response rating, Pigweed
[13] = pre-emergence, Preemergence, scale 0 to 100, read-out: Plant response rating, Pigweed
[14] = post-emergence, Postemergence, scale 0 to 100 (0 no effect, 100 complete control), read-out: Soybean plant response rating
[15] = post-emergence, Postemergence, scale 0 to 100, read-out: Plant response rating, Soybean
[16] = pre-emergence, Preemergence, scale 0 to 100, read-out: Plant response rating, Soybean
[17] = post-emergence, Postemergence, scale 0 to 100 (0 no effect, 100 complete control), read-out: Cupgrass, Woolly plant response rating
[18] = post-emergence, Postemergence, scale 0 to 100, read-out: Plant response rating, Cupgrass, Woolly
[19] = pre-emergence, Preemergence, scale 0 to 100, read-out: Plant response rating, Cupgrass, Woolly
[20] = post-emergence, Postemergence, scale 0 to 100 (0 no effect, 100 complete control), read-out: Kochia plant response rating

`Nc1nc(C2CC2)nc(C(=O)O)c1Br` [Compound 8] was tested. Which pest or weed control at 125 g/ha [1, 5] did it give?
The pest or weed control at 125 g/ha was 65%.

What about the pest or weed control at 500 g/ha [1, 6] of the same molecule?
Its pest or weed control at 500 g/ha is 80%.

And the pest or weed control at 62 g/ha [1, 5]?
Its pest or weed control at 62 g/ha is 40%.

What about the pest or weed control at 250 g/ha [1, 6] of the same molecule?
The pest or weed control at 250 g/ha was 70%.

What about the pest or weed control at 62 g/ha ([1]; pre-emergence, Preemergence, scale 0 to 100, 0 no effect, 100 complete control, read-out: Plant response rating, Surinam Grass) of the same molecule?
The pest or weed control at 62 g/ha was 0%.

What about the pest or weed control at 125 g/ha [1, 7] of the same molecule?
Its pest or weed control at 125 g/ha is 100%.

What about the pest or weed control at 250 g/ha [1, 7] of the same molecule?
Its pest or weed control at 250 g/ha is 100%.

What about the pest or weed control at 500 g/ha [1, 7] of the same molecule?
The pest or weed control at 500 g/ha was 100%.

What about the pest or weed control at 62 g/ha [2, 8] of the same molecule?
Its pest or weed control at 62 g/ha is 0%.

And the pest or weed control at 125 g/ha [2, 8]?
The pest or weed control at 125 g/ha was 0%.

What about the pest or weed control at 250 g/ha [2, 9] of the same molecule?
Its pest or weed control at 250 g/ha is 45%.

And the pest or weed control at 500 g/ha [2, 9]?
Its pest or weed control at 500 g/ha is 60%.

And the pest or weed control at 62 g/ha ([2]; pre-emergence, Preemergence, scale 0 to 100, 0 no effect, 100 complete control, read-out: Plant response rating, Goosegrass)?
The pest or weed control at 62 g/ha was 0%.

And the pest or weed control at 125 g/ha [2, 10]?
Its pest or weed control at 125 g/ha is 0%.

What about the pest or weed control at 250 g/ha [2, 10] of the same molecule?
The pest or weed control at 250 g/ha was 35%.

What about the pest or weed control at 500 g/ha [2, 10] of the same molecule?
Its pest or weed control at 500 g/ha is 45%.

And the pest or weed control at 62 g/ha [3, 11]?
The pest or weed control at 62 g/ha was 70%.

What about the pest or weed control at 125 g/ha [3, 11] of the same molecule?
Its pest or weed control at 125 g/ha is 75%.

And the pest or weed control at 250 g/ha [3, 12]?
Its pest or weed control at 250 g/ha is 100%.

What about the pest or weed control at 500 g/ha [3, 12] of the same molecule?
Its pest or weed control at 500 g/ha is 100%.

What about the pest or weed control at 62 g/ha ([3]; pre-emergence, Preemergence, scale 0 to 100, 0 no effect, 100 complete control, read-out: Plant response rating, Pigweed) of the same molecule?
Its pest or weed control at 62 g/ha is 65%.

What about the pest or weed control at 125 g/ha [3, 13] of the same molecule?
The pest or weed control at 125 g/ha was 85%.

And the pest or weed control at 250 g/ha [3, 13]?
The pest or weed control at 250 g/ha was 90%.

What about the pest or weed control at 500 g/ha [3, 13] of the same molecule?
Its pest or weed control at 500 g/ha is 95%.

And the plant injury at 62 g/ha (soybean (Glycine max); [14])?
Its plant injury at 62 g/ha is 95%.

And the plant injury at 125 g/ha (soybean (Glycine max); [14])?
Its plant injury at 125 g/ha is 95%.

And the plant injury at 250 g/ha (soybean (Glycine max); [15])?
The plant injury at 250 g/ha was 100%.

What about the plant injury at 500 g/ha (soybean (Glycine max); [15]) of the same molecule?
The plant injury at 500 g/ha was 100%.

What about the plant injury at 62 g/ha (soybean (Glycine max); pre-emergence, Preemergence, scale 0 to 100, 0 no effect, 100 complete control, read-out: Plant response rating, Soybean) of the same molecule?
Its plant injury at 62 g/ha is 100%.

What about the plant injury at 125 g/ha (soybean (Glycine max); [16]) of the same molecule?
The plant injury at 125 g/ha was 100%.

And the plant injury at 250 g/ha (soybean (Glycine max); [16])?
The plant injury at 250 g/ha was 100%.

And the plant injury at 500 g/ha (soybean (Glycine max); [16])?
Its plant injury at 500 g/ha is 100%.

What about the pest or weed control at 62 g/ha [4, 17] of the same molecule?
Its pest or weed control at 62 g/ha is 30%.

What about the pest or weed control at 125 g/ha [4, 17] of the same molecule?
The pest or weed control at 125 g/ha was 60%.

And the pest or weed control at 250 g/ha [4, 18]?
Its pest or weed control at 250 g/ha is 75%.

And the pest or weed control at 500 g/ha [4, 18]?
Its pest or weed control at 500 g/ha is 85%.

And the pest or weed control at 62 g/ha ([4]; pre-emergence, Preemergence, scale 0 to 100, 0 no effect, 100 complete control, read-out: Plant response rating, Cupgrass, Woolly)?
The pest or weed control at 62 g/ha was 0%.

And the pest or weed control at 125 g/ha [4, 19]?
Its pest or weed control at 125 g/ha is 65%.

And the pest or weed control at 250 g/ha [4, 19]?
Its pest or weed control at 250 g/ha is 100%.

What about the pest or weed control at 500 g/ha [4, 19] of the same molecule?
Its pest or weed control at 500 g/ha is 100%.

And the pest or weed control at 62 g/ha (kochia (Kochia scoparia); [20])?
Its pest or weed control at 62 g/ha is 95%.

What about the pest or weed control at 125 g/ha (kochia (Kochia scoparia); [20]) of the same molecule?
The pest or weed control at 125 g/ha was 100%.

What about the pest or weed control at 250 g/ha (kochia (Kochia scoparia); post-emergence, Postemergence, 250 g ai/ha, scale 0 to 100, read-out: Plant response rating, Kochia) of the same molecule?
The pest or weed control at 250 g/ha was 100%.

And the pest or weed control at 500 g/ha (kochia (Kochia scoparia); post-emergence, Postemergence, 500 g ai/ha, scale 0 to 100, read-out: Plant response rating, Kochia)?
Its pest or weed control at 500 g/ha is 100%.

What about the pest or weed control at 62 g/ha (kochia (Kochia scoparia); pre-emergence, Preemergence, scale 0 to 100, 0 no effect, 100 complete control, read-out: Plant response rating, Kochia) of the same molecule?
Its pest or weed control at 62 g/ha is 50%.

What about the pest or weed control at 125 g/ha (kochia (Kochia scoparia); pre-emergence, Preemergence, scale 0 to 100, read-out: Plant response rating, Kochia) of the same molecule?
The pest or weed control at 125 g/ha was 85%.
